Source: patent US20040248766A1, “Selective inhibition of intracellular amyloid-beta neurotoxicity in human neurons” (priority 2001, published 2004)
Values joined by “and” are separate entries in the source; they are usually repeats but may differ in a detail not shown here. Equal values may be shown once. “Also recorded” adds a separate entry of the source.

Columns and labels:
[1] = tested on: human neuroblastoma M17; assay: Microinjection of Aβ1-42 into M17 cells, TUNEL; format: cell-based; conditions: M17, up to 8×10^−19 moles injected, 24 hours
Procedure: (§1) Human neuroblastoma M17 cells were cultured on ACLAR™ coverslips at 1×10^6 cells/ml in OPTI-MEM (Gibco-BRL) containing 5% FBS. Microinjection was performed when the cells reached 70-80% confluence on the coverslips. Human teratocarcinoma NT2 (Stratagene, La Jolla, Calif.) and neuroblastoma La-N-1 cells were cultured on ACLAR™ coverslips at 1×10^6 cells/ml in DMEM (Gibco-BRL) containing 10% FBS. Microinjection was performed when the cells were 50% confluent.
(§2) Microinjection. Thin-walled Borosilicate glass capillaries (OD 1.0 mm, ID 0.5 mm) with microfilament (MTW1OOF-4, World Precision Instrument, Sarasota, Fla.) were pulled with a Flaming/Brown Micropipefte Puller (β-87, Sutter, Novato, Calif.) to obtain injection needles with a tip diameter of ˜0.5 μm. Microinjection was performed in the cytosol of each cell using the Eppendorf Microinjector 5246 (Hamburg, Germany) and Burleigh Micromanipulator MIS-5000 (Victor, N.Y.). Human neurons were injected with 25 pl/shot at an injection pressure of 100 hPa, a compensation pressure of 50 hPa, and an injection time of 0.1 s. […]
(§3) Measurement of neuronal apoptosis. […] The percentage of cell death was determined as the ratio of the number of DTR-TLUNEL-double-positive cells over the total number of DIR-positive cells.

[2] = tested on: baby hamster kidney (BHK) cell lines; assay: Microinjection of Aβ1-42 into BHK cells, TUNEL; format: cell-based; conditions: 24 hours
[3] = determined in a medium or extracellularly; cited from earlier work
[4] = tested on: NIH 3T3 fibroblasts; assay: Microinjection of Aβ1-42 into NIH 3T3 fibroblasts, TUNEL; format: cell-based, mice; conditions: 24 hours
[5] = tested on: human neuroblastoma La-N-1; assay: Microinjection of Aβ1-42 into La-N-1 cells, TUNEL; format: cell-based; conditions: La-N-1, up to 8×10^−19 moles injected, 24 hours
Procedure: as §1, §2, §3

[6] = tested on: primary human neurons; assay: Microinjection of Aβ peptides into the cytosol of primary human neurons, cell death by TUNEL; format: cell-based; conditions: for number of molecules toxic (as few as / as little as): microinjected neurons
Procedure: (§4) Cell cultures. Primary cultures of human neurons and astrocytes were prepared as described in LeBlanc, A., J. Neurosci. 15:7837-46 (1995), incorporated herein by reference. Fresh brain tissues were dissociated with 0.25% trypsin (Gibco-BRL) in phosphate buffered saline (PBS) at 37° C. for 15 minutes. The trypsin was inactivated. by adding 10% decomplemented fetal bovine serum (FBS, HyClone, Logan, Utah.) to the mixture. The dissociated tissues were triturated in 0.1 mg/ml DNaseI (Gibco-BRL) to obtain a homogeneous mixture. The mixture was filtered successively through 130 and 70 gm filters and centrifuged at 15,000 g for 10 minutes at 10° C. to pellet the cells. The cell pellet was washed once with PBS and once with minimal essential media (MEM, Gibco-BRL) in Earle's balanced salt solution containing 0.225% sodium bicarbonate, 1 mM sodium pyruvate, 2 mM L-glutamine, 0.1% dextrose, 1×antibiotic Pen-Strep (all from Gibco-BRL) and 5% decomplemented FBS.
The cells were plated on poly-L-lysine-coated ACLARTM (Cat. No.: 33C; thickness: 0.5 mm; Allied Chemical, Minneapolis, Minn.) coverslips at a density of 3×10^6 cells/ml. Neurons and astrocytes were incubated at 37° C. in the MEM media with 5% CO2, and the media were changed every 48 hours. For neuron culture, 1 mM fluorodeoxyuridine (FDU, Gibco-BRL) was applied for the first 3 feedings and after that, used weekly to prevent proliferation of dividing cells. […] Microinjection or treatment was performed 10 days after plating for neurons and astrocytes.
Aβ peptides. Aβ peptides (Bachem, King of Prussia, Pa.) were dissolved in sterile distilled water at 25 μM and incubated at 37° C. for 5 days. The peptides stock solutions were frozen and diluted in 1×PBS immediately before microinjection. […] A 250 μl aliquot was diluted to 0.25 μM and immediately frozen at −20° C. in aliquots of 50 μl. The remaining solution was incubated at 37° C. in Eppendorf tubes with continuous mixing by inversion. After incubation, the samples were removed, vortexed, sonicated twice for 1 minute in a bath type sonicator (ELMA GmbH & Co. KG, Germany) and frozen at −20° C. in […]. Each aliquot was used once to avoid possible effects of freeze and thaw cycles.
(§5) Microinjection. Thin-walled Borosilicate glass capillaries (OD 1.0 mm, ID 0.5 mm) with microfilament (MTW1OOF-4, World Precision Instrument, Sarasota, Fla.) were pulled with a Flaming/Brown Micropipefte Puller (β-87, Sutter, Novato, Calif.) to obtain injection needles with a tip diameter of ˜0.5 μm. Microinjection was performed in the cytosol of each cell using the Eppendorf Microinjector 5246 (Hamburg, Germany) and Burleigh Micromanipulator MIS-5000 (Victor, N.Y.). Human neurons were injected with 25 pl/shot at an injection pressure of 100 hPa, a compensation pressure of 50 hPa, and an injection time of 0.1 s. Human astrocytes, M17, NT2 and La—N-1 cells were injected with 8 pl/shot at an injection pressure of 50 hPa, a compensation pressure of 30 hPa and an injection time of 0.1 s.
The diluted peptides were injected at the indicated concentrations with 100 μg/ml dextran Texas Red (DTR) (MW: 3000, Molecular Probes, Eugene, Oreg.) as a fluorescent marker to recognize the injected cells.
(§6) Measurement of neuronal apoptosis. Cells were fixed in freshly prepared 4% paraformaldehyde/4% sucrose for 20 minutes at room temperature and permeabilized in 0.1% Triton X-100, 0.1% sodium citrate on ice for 2 minutes. Terminal deoxynucleotidyl transferase-mediated dUTP nick end labeling (TUNEL) was performed using the In Situ Cell Death Detection Kit I as described by the manufacturer (Roche Molecular Biochemicals).

[7] = tested on: human teratocarcinoma NT2; assay: Microinjection of Aβ1-42 into NT2 cells, TUNEL; format: cell-based; conditions: NT2, up to 8×10^−19 moles injected, 24 hours
Procedure: as §1, §2, §3

[8] = tested on: primary human astrocytes; assay: Microinjection of Aβ1-42 into primary human astrocytes, TUNEL/Hoechst; format: cell-based; conditions: up to 100 nM / 8×10^−19 moles injected, 24 hours
Procedure: as §4, with “FBS. […]” for “FBS.”
Measurement of neuronal apoptosis. […] The percentage of cell death was determined as the ratio of the number of DTR-TLUNEL-double-positive cells over the total number of DIR-positive cells. […]
Cell death was identified by TUNEL staining and nuclei detected with Hoechst staining. […] The faint green fluorescence detected in these cells is the results of bleed-through from the red DTR fluorescence on the microscope.

[9] = tested on: human neurons; assay: Exposure of human neurons to extracellular Aβ peptides, TUNEL and propidium iodide; format: cell-based; conditions: 10 μM extracellular, 24 hours
Procedure: To test if this particular batch of peptide might be neurotoxic, neurons were treated with 10 μM of peptides for 24 hours.

[10] = tested on: Aβ1-42-mediated neuronal cell death; assay: Inhibition of Aβ1-42-mediated neuronal cell death in Aβ1-42-microinjected neurons, TUNEL; format: cell-based, human; conditions: 20 mM, 1 hour pre-incubation, 24 hours
Procedure: cDNA Clones. Human Bcl-2 cDNA, Bax α cDNA, and APP695 cDNA were cloned into pCep4β (Invitrogen Canada, Burlington, ON, Canada). The p53 wild type and p53R273H dominant negative cDNA may be cloned in the pCMV-NEO vector. These cDNAs were purified through GlassMAXTM (Gibco-BRL, Rockville, Mass.) and diluted at 30 ng/μl in PBS before injection.
Neutralizing Bax antibodies. Monoclonal anti-Bax 6A7 (amino acids 12-24: Pharmingen, San Diego, Calif.) and 2D2 (amino acids 3-16: Trevigen, Gaithersburg, Md.), polyclonal anti-Bax N-20 (Santa Cruz Biotechnology, Santa Cruz, Calif.), monoclonal anti-APP 22C11 (Roche Molecular Biochemicals, Laval, PQ, Canada), mouse IgG or rabbit sera were diluted at 50 μg/ml (for 6A7, 2D2, mouse IgG and 22C11) or 25 μg/ml (for polyclonal anti-Bax and rabbit sera) in PBS before use. A toxicity curve was done to determine this concentration as the highest non-toxic concentration that can be injected in neurons.
as §5
as §6, with “Biochemicals). The percentage of cell death was determined as the ratio of the number of DTR-TLUNEL-double-positive cells over the total number of DIR-positive cells.” for “Biochemicals).”
Treatment with caspase inhibitors, cycloheximide, actinomycin D. Caspase pan inhibitor, Z-Valine-Alanine-Aspartic acid-fluoromethylketone (Z-VAD-fmk) (Biomol, Plymounth Meeting, PA); caspase-6 inhibitor, Z-Valine-Glutamic acid-Isoleucine-Aspartic acid-fmk (Z-VEID-fnk); caspase-3 inhibitor, Z-Aspartic acid-Glutamic acid-Valine-Aspartic acid-fmk (Z-DEVD-fmk); and caspase-8 inhibitor, Z-Isoleucine-Glutamic acid-Threomine-Aspartic acid-fmk (Z-IETD-fmk) (Sigma, Oakville, ON, Canada) were dissolved in 100% dimethylsulphoxide (DMSO, Sigma) at 5 mM and were diluted at 5 μM into culture medium immediately before use. The medium was changed every 48 hours.
Stock solutions of 5 mg/ml cycloheximide and 200 IM actinomycin D were made in sterile distilled water and diluted to 5 μg/ml for cycloheximide and 5 μM for actinomycin D in the culture medium immediately before use.
Dextran Texas Red (DTR) was co-injected with Aβ1-42 to identi the injected cells from the non-injected cells. The experiment was done on 200 microinjected neurons per preparation of neurons and on three independent neuron preparations.

[11] = tested on: human neurons; assay: Neuronal cell death caused by the agent alone (without Aβ1-42); format: cell-based; conditions: 20 mM, DTR-injected neurons, 24 hours
Procedure: as §6

With “Aβ1-42: 42 amino acid amyloid β peptide (SEQ ID NO: 2), aged 5 days at 37° C.” the “intracellular toxicity (in words)” value [1] was “not observed to be toxic; also recorded: completely resist; also recorded: fails to induce cell death”, the “intracellular toxicity (in words)” value ([1]; listed as Aβ42) was “remain resistant” and the “intracellular toxicity (in words)” value [2] was “not observed to be toxic; also recorded: fails to induce cell death”. For the same compound, the “toxic concentration known in the art” value [3] was 10 to 100 µM, the “intracellular toxicity (in words)” value [4] was “not observed to be toxic; also recorded: fails to induce cell death” and the “intracellular toxicity (in words)” value [5] was “not observed to be toxic; also recorded: completely resist; also recorded: fails to induce cell death”. For the same compound, the “intracellular toxicity (in words)” value ([5]; listed as Aβ42) was “remain resistant”, the “cell death of microinjected neurons” value ([6]; 10 nM aged peptide, 48 hours after injection) was 78% and the “amount delivered into the neuron cytosol sufficient to induce rapid neuronal death” value ([6]; 25 pl/shot of 10 nM) was 2.5e-19 mol. For the same compound, the “apoptosis of microinjected neurons” value ([6]; 25×10^−21 moles intracellular, within 24 hours after injection) was 70%, the “cell death of microinjected neurons” value ([6]; 100-fold dilution in the amount injected (25 pl/shot of 10 nM)) was 50% and the “number of molecules giving 50% toxicity” value ([6]; based on the Avogadro number) was 1505.5 molecules/neuron. The “number of molecules injected giving maximal toxicity” value ([6]; based on the Avogadro number) was 150,055 molecules, the “toxic concentration of injected peptide in the cytosol” value ([6]; calculated from injected moles and cytosolic volume 2.5 nL) was 1 pM and 1 to 100 pM and the “number of molecules toxic (as few as / as little as)” value [6] was 1500 molecules. For the same compound, the “number of molecules toxic (as few as / as little as)” value ([6]; listed as Aβ42) was 150.5 molecules, the “intracellular toxicity to human neurons (in words)” value ([6]; peptide microinjected into cytosol) was “rapidly induces cell death” and the “reduction of concentration that still exerts significant toxicity” value ([6]; relative to 25×10^−21 moles/cell, FIG. 1C) was 100 to 1000 fold. For the same compound, the “intracellular toxicity (in words)” value [7] was “not observed to be toxic; also recorded: completely resist; also recorded: fails to induce cell death”, the “intracellular toxicity (in words)” value ([7]; listed as Aβ42) was “remain resistant” and the “intracellular toxicity (in words)” value [8] was “not observed to be toxic; also recorded: completely resist; also recorded: do not show any sign of condensed chromatin by Hoechst staining, nor positive nuclei TUNEL staining”. For the same compound, the “intracellular toxicity (in words)” value ([8]; listed as Aβ42) was “remain resistant” and the “toxicity of extracellular peptide (in words)” value [9] was “do not undergo cell death; also recorded: Neither extracellular Aβ1-40, Aβ1-42, or Aβ40-1 are toxic”.
For [Cl-].[Li+] [LiCl2], the “protection against intracellular Aβ1-42 toxicity (in words)” value [10] was “efficiently protected” and the “cell death with agent and DTR only (in words)” value [11] was “did not undergo cell death”.
